Residues, ends and D or L forms follow the SMILES beside them. *: point of attachment. Cbz = O=C(OCc1ccccc1)*
Target: T1, Calpain-1 catalytic subunit (Sus scrofa, UniProt P35750)
T1 sequence (P35750 whole entry): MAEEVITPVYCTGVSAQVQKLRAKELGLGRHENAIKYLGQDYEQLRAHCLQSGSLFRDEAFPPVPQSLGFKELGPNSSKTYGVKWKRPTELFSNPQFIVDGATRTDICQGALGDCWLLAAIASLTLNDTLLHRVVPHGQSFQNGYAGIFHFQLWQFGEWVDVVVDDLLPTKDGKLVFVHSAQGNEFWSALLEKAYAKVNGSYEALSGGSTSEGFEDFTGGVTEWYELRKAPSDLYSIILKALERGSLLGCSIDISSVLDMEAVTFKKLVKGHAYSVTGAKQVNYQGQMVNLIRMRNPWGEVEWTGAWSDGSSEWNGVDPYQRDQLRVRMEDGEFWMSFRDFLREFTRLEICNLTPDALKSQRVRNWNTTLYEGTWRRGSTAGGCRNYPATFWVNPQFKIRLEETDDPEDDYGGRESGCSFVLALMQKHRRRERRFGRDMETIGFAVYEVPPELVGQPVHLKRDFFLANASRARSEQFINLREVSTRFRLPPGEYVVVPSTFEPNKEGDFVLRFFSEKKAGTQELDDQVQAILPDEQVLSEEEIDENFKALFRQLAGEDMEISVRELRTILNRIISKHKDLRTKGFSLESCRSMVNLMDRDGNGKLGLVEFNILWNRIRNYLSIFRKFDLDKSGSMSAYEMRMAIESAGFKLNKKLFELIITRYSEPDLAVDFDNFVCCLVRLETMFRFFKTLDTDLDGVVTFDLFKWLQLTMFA
Test: Inhibition of pig erythrocyte mu-calpain by fluorometric assay

Ki [nM]	SMILES
50	CC(C)C[C@H](NC(=O)CCC1CCCCC1)C(=O)NC(Cc1ccccc1)C(=O)C(=O)O (mixture of isomers)
8	CC(C)C[C@H](NC(=O)CC1c2ccccc2-c2ccccc21)C(=O)NC(Cc1ccccc1)C(=O)C(=O)O (mixture of isomers)
450	COC(=O)C(=O)C(Cc1ccccc1)NC(=O)[C@H](CC(C)C)NC(=O)CC12CC3CC(CC(C3)C1)C2 (mixture of isomers)
944	COC(=O)C(=O)C(Cc1ccccc1)NC(=O)[C@H](CC(C)C)NC(=O)C(c1ccccc1)c1ccccc1 (mixture of isomers)
108	CC(C)C[C@H](NC(=O)C(c1ccccc1)c1ccccc1)C(=O)NC(Cc1ccccc1)C(=O)C(=O)O (mixture of isomers)
63	CC(C)C[C@H](NC(=O)CC(c1ccccc1)c1ccccc1)C(=O)NC(Cc1ccccc1)C(=O)C(=O)O (mixture of isomers)
1200	COC(=O)C(=O)C(Cc1ccccc1)NC(=O)[C@H](CC(C)C)NC(=O)CC1c2ccccc2-c2ccccc21 (mixture of isomers)
41	CC(C)C[C@H](NC(=O)CC12CC3CC(CC(C3)C1)C2)C(=O)NC(Cc1ccccc1)C(=O)C(=O)O (mixture of isomers)
1050	COC(=O)C(=O)C(Cc1ccccc1)NC(=O)[C@H](CC(C)C)NC(=O)CCC1CCCCC1 (mixture of isomers)

SMILES	Ki [nM]
CC(C)[C@H](NC(=O)OCc1ccccc1)C(=O)N[C@H](C=O)Cc1ccccc1 (Cbz-Val-Phe-aldehyde)	10

From ChEMBL document CHEMBL1155134, “Structural basis for the potent calpain inhibitory activity of peptidyl alpha-ketoacids” (J Med Chem, 2008)
